Experimental data as given in US9174997B2, “4-(4-cyano-2-thioaryl)dihydropyrimidinones and use thereof” (Bayer Intellectual Property GmbH, priority 2007, dated 2015).

Tests used:
[1] = tested on: rat hepatocytes; experiment: Hepatocyte assay to determine the metabolic stability; type: in vitro ADME; conditions: after incubation with rat hepatocytes
Procedure: B-6. Hepatocyte Assay to Determine the Metabolic Stability
The metabolic stability of test compounds in the presence of hepatocytes is determined by incubating the compounds with low concentrations (preferably below or around 1 μM) and with low cell counts (preferably 1*10^6 cells/ml) in order to ensure as far as possible linear kinetic conditions in the experiment. Seven samples of the incubation solution are taken in a fixed time pattern for the […] analysis in order to determine the half-life (i.e. the degradation) of the compound in each case. Various clearance parameters (CL) and Fmax values are calculated from this half-life (see below).
The Cl and Fmax values represent a measure of the phase 1 and phase 2 metabolism of the compounds in the hepatocytes. In order to minimize the influence of the organic solvent on the enzymes in the incubation mixtures, this concentration is generally limited to 1% (acetonitrile) or 0.1% (DMSO).
A cell count for hepatocytes in the liver of 1.1*10^8 cells/g of liver is used for calculation for all species and breeds.
The calculated parameters and their meaning are:
Representative values for the compounds according to the invention from this assay after incubation of the compounds with rat hepatocytes are shown in Table B below: […]

[2] = target: human neutrophil elastase (HNE) (Homo sapiens (Human), UniProt P08246); experiment: In vitro HNE inhibition assay; type: biochemical; conditions: HNE concentration of 80 pM; substrate MeOSuc-Ala-Ala-Pro-Val-AMC; 37° C. for 2 hours
Sequence of human neutrophil elastase (HNE) (P08246 30-267): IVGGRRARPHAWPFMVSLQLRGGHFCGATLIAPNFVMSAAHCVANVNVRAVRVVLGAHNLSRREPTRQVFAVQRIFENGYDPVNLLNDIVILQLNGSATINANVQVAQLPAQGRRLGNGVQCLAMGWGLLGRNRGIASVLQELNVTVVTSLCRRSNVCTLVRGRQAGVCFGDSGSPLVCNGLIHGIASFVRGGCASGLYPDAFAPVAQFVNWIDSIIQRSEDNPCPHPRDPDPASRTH
Procedure: B-1. In Vitro HNE Inhibition Assay
The potency of the compounds of the invention is ascertained in an in vitro inhibition assay. The HNE-mediated amidolytic cleavage of a suitable peptide substrate leads in this connection to an increase in the fluorescent light. The signal intensity of the fluorescent light is directly proportional to the enzyme activity.
Enzyme ([…]; from Serva, Heidelberg) and substrate (20 μM MeOSuc-Ala-Ala-Pro-Val-AMC; from Bachem, Weil am Rhein) are incubated in an assay volume of in total 50 μl of assay buffer (0.1 M HEPES pH 7.4, 0.5 M NaCl, 0.1% w/v BSA, 1% v/v DMSO) in a 384-well microtiter plate in the presence and absence of the test substance at 37° C. for 2 hours. […] The IC50 values are determined by plotting the intensity of the fluorescent light against the active substance concentration.

Row | SMILES | CLblood, calculated blood clearance (well stirred model) [1] [mL/min/kg] | Fmax, maximum possible bioavailability after oral administration (well-stirred) [1] [%] | IC50 [2] [nM]
1 | [C-]#[N+]C1=C(C)N(c2cccc(C(F)(F)F)c2)C(=O)N[C@@H]1c1ccc(C#N)cc1[S@+](C)[O-] (single isomer, unassigned; diastereomer 1) [Example 43 (Diastereomer 1)] | 21.7 | 69 | 0.3
2 | CC1=C(C#N)[C@@H](c2ccc(C#N)cc2S(C)(=O)=O)N(C(=O)NCCO)C(=O)N1c1cccc(C(F)(F)F)c1 [Example 10, (6S)-5-Cyano-6-[4-cyano-2-(methylsulfonyl)phenyl]-N-(2-hydroxyethyl)-4-methyl-2-oxo-3-[3-(trifluoromethyl)phenyl]-3,6-dihydropyrimidine-1(2H)-carboxamide] | 25 | 65 | < 0.3
3 | CC1=C(C#N)[C@@H](c2ccc(C#N)cc2S(C)(=O)=O)N(C(=O)NN(CCO)CCO)C(=O)N1c1cccc(C(F)(F)F)c1 [Example 12, (6S)-5-Cyano-6-[4-cyano-2-(methylsulfonyl)phenyl]-N′,N′-bis(2-hydroxyethyl)-4-methyl-2-oxo-3-[3-(trifluoromethyl)phenyl]-3,6-dihydropyrimidine-1(2H)-carbohydrazide] | 28.3 | 59 | < 0.3
4 | CC1=C(C#N)[C@@H](c2ccc(C#N)cc2S(C)(=O)=O)N(CC(N)=O)C(=O)N1c1cccc(C(F)(F)F)c1 [Example 22, 2-[(6S)-5-Cyano-6-[4-cyano-2-(methylsulfonyl)phenyl]-4-methyl-2-oxo-3-[3-(trifluoromethyl)phenyl]-3,6-dihydropyrimidin-1(2H)-yl]acetamide] | 3.3 | 95 | 0.45
5 | CC1=C(C#N)[C@@H](c2ccc(C#N)cc2S(C)(=O)=O)N(S(C)(=O)=O)C(=O)N1c1cccc(C(F)(F)F)c1 [Example 27, (4S)-4-[4-Cyano-2-(methylsulfonyl)phenyl]-6-methyl-3-(methylsulfonyl)-2-oxo-1-[3-(trifluoromethyl)phenyl]-1,2,3,4-tetrahydropyrimidine-5-carbonitrile] | 6.7 | 91 | < 0.3
6 | CC1=C(C#N)[C@@H](c2ccc(C#N)cc2S(C)(=O)=O)N(S(=O)(=O)C2CC2)C(=O)N1c1cccc(C(F)(F)F)c1 [Example 32, (4S)-4-[4-Cyano-2-(methylsulfonyl)phenyl]-6-methyl-3-(cyclopropylsulfonyl)-2-oxo-1-[3-(trifluoromethyl)phenyl]-1,2,3,4-tetrahydropyrimidine-5-carbonitrile] | 1.7 | 97 | < 0.3
7 | CN1CC2=C(C1=O)[C@@H](c1ccc(C#N)cc1S(C)(=O)=O)N(S(C)(=O)=O)C(=O)N2c1cccc(C(F)(F)F)c1 [Example 36, 4-{(4S)-6-Methyl-3-(methylsulfonyl)-2,5-dioxo-1-[3-(trifluoromethyl)phenyl]-2,3,4,5,6,7-hexahydro-1H-pyrrolo[3,4-d]pyrimidin-4-yl}-3-(methylsulfonyl)benzonitrile] | 6.7 | 89 | < 0.3
8 | CC1=C(C#N)[C@@H](c2ccc(C#N)cc2S(C)(=O)=O)N(C(=O)N2CC(O)C2)C(=O)N1c1cccc(C(F)(F)F)c1 [Example 51, (4S)-4-[4-Cyano-2-(methylsulfonyl)phenyl]-3-[(3-hydroxyazetidin-1-yl)carbonyl]-6-methyl-2-oxo-1-[3-(trifluoromethyl)phenyl]-1,2,3,4-tetrahydropyrimidine-5-carbonitrile] |  |  | < 0.3
9 | CC1=C(C#N)[C@@H](c2ccc(C#N)cc2S(C)(=O)=O)N(C(=O)N2CCC[C@@H](N)C2)C(=O)N1c1cccc(C(F)(F)F)c1 [Example 55, (4S)-3-[(3R)-3-Aminopiperidin-1-yl]carbonyl-4-[4-cyano-2-(methylsulfonyl)phenyl]-6-methyl-2-oxo-1-[3-(trifluoromethyl)phenyl]-1,2,3,4-tetrahydropyrimidine-5-carbonitrile] |  |  | < 0.3
10 | CC1=C(C#N)[C@@H](c2ccc(C#N)cc2S(C)(=O)=O)N(C(=O)N2CCN(c3ccccn3)CC2)C(=O)N1c1cccc(C(F)(F)F)c1 [Example 69] |  |  | 0.9
11 | CC1=C(C#N)[C@@H](c2ccc(C#N)cc2S(C)(=O)=O)N(C(=O)N(CC(C)O)CC(C)O)C(=O)N1c1cccc(C(F)(F)F)c1 (some centres unmarked) [Example 80] |  |  | < 0.3
12 | CC1=C(C#N)[C@@H](c2ccc(C#N)cc2S(C)(=O)=O)N(C(=O)NC(C)(C)CO)C(=O)N1c1cccc(C(F)(F)F)c1 [Example 85] |  |  | < 0.3
13 | CC1=C(C#N)[C@@H](c2ccc(C#N)cc2S(C)(=O)=O)N(S(=O)(=O)c2ccc(F)cc2)C(=O)N1c1cccc(C(F)(F)F)c1 [Example 91] | 12 | 83 | < 0.3
14 | CC1=C(C#N)[C@@H](c2ccc(C#N)cc2S(C)(=O)=O)N(S(=O)(=O)c2cnn(C(F)F)c2C)C(=O)N1c1cccc(C(F)(F)F)c1 [Example 96] |  |  | < 0.3
15 | CC1=C(C#N)[C@@H](c2ccc(C#N)cc2S(C)(=O)=O)N(S(=O)(=O)c2ccccc2C#N)C(=O)N1c1cccc(C(F)(F)F)c1 [Example 103] |  |  | < 0.3
16 | CC1=C(C#N)[C@@H](c2ccc(C#N)cc2S(C)(=O)=O)N(CC#N)C(=O)N1c1cccc(C(F)(F)F)c1 [Example 116, (4S)-3-(Cyanomethyl)-4-[4-cyano-2-(methylsulfonyl)phenyl]-6-methyl-2-oxo-1-[3-(trifluoromethyl)phenyl]-1,2,3,4-tetrahydropyrimidine-5-carbonitrile] | 6.7 | 91 | < 0.3
17 | CCS(=O)(=O)c1cc(C#N)ccc1[C@@H]1C(C#N)=C(C)N(c2cccc(C(F)(F)F)c2)C(=O)N1C [Example 128, (4S)-4-[4-Cyano-2-(ethylsulfonyl)phenyl]-3,6-dimethyl-2-oxo-1-[3-(trifluoromethyl)phenyl]-1,2,3,4-tetrahydropyrimidine-5-carbonitrile] | 15 | 78 | < 0.3
18 | CC1=C(C#N)[C@@H](c2ccc(C#N)cc2S(=O)(=O)c2ccccc2)NC(=O)N1c1cccc(C(F)(F)F)c1 [Example 141, (4S)-4-{4-Cyano-2-[phenylsulfonyl]phenyl}-6-methyl-2-oxo-1-[3-(trifluoromethyl)phenyl]-1,2,3,4-tetrahydropyrimidine-5-carbonitrile] |  |  | < 0.3
19 | CC1=C(C(=O)OCCO)[C@@H](c2ccc(C#N)cc2S(C)(=O)=O)N(S(C)(=O)=O)C(=O)N1c1cccc(C(F)(F)F)c1 [Example 144, 2-Hydroxyethyl (4S)-4-[4-cyano-2-(methylsulfonyl)phenyl]-6-methyl-3-(methylsulfonyl)-2-oxo-1-[3-(trifluoromethyl)phenyl]-1,2,3,4-tetrahydropyrimidine-5-carboxylate] | 20 | 72 | < 0.3
